The assay deals with CUL4A-DDB1-BPB interaction (Homo sapiens (Human), UniProt Q16531). The assay is described as follows: AlphaLISA in vitro binding assay, CUL4A and DDB1-BPB binding. The note with it: inhibition of CUL4A and DDB1-BPB binding. From the text:
AlphaLISA IC50 (see Table 1, column 4) means the half maximal inhibitory concentration of compound that inhibits CUL4A and DDB1-BPB binding. Our lab established and optimized 384 well-based AlphaLISA in vitro binding assay for testing small molecule inhibitory activity. Small molecule libraries were screened for compounds that disrupt CUL4A-DDB1-BPB interaction using AlphaScreen detection beads (PerkinElmer, #AL112C and #6765300) following the manufacturer's protocol (https://www.perkinelmer.com/PDFs/downloads/GDE-Alphatech.pdf, hereby incorporated by reference in its entirety for all purposes). The 384-well assay plates (Greiner Bio-one, #781075) were read in Synergy Neo2 Hybrid Multi-Mode Reader (BioTek). The IC50 was calculated by Prism 8 XY analysis nonlinear regression (curve fit-Log(inhibitor) vs response).

The term IC50 denotes the concentration that inhibits the measured activity by half.

Sequence of CUL4A-DDB1-BPB interaction (Q16531 403-706): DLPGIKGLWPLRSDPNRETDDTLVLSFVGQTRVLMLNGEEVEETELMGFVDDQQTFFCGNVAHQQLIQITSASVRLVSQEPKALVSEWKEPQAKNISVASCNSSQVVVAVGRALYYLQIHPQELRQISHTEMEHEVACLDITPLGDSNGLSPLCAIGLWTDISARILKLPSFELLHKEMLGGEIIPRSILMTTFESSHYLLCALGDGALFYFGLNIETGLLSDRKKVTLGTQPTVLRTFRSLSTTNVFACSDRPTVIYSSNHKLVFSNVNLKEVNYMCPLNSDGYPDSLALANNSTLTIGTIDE

Take `NS(=O)(=O)c1cc2c([nH]c3ccc(Cl)cc32)c(-c2ccc([N+](=O)[O-])cc2)n1` [PA41, 6-chloro-1-(4-nitrophenyl)-9H-pyrido[3,4-b]indole-3-sulfonamide]: the “AlphaLisa IC50” value is given as “Neg”.
For the compound `O=C(O)c1cc2c([nH]c3ccccc32)c(-c2ccc(-c3ccc(F)cc3)cc2)n1` [PA58], the IC50 came out at 5.5 ± 1.89 µM.
Same read-out and setting: the value for `CN(C)S(=O)(=O)c1ccc(-c2nc(C(=O)O)cc3c2[nH]c2ccccc23)cc1` [PA50, 1-[4-(dimethylsulfamoyl)phenyl]-9H-pyrido[3,4-b]indole-3-carboxylic acid] was 0.81 ± 0.21 µM; that for `O=C(O)c1cc2c([nH]c3ccccc32)c(-c2ccc(C#Cc3ccccc3)cc2)n1` [PA62] was 36.5 ± 9.9 µM.
Consider `CS(=O)(=O)Nc1cc2c([nH]c3ccccc32)c(-c2ccc([N+](=O)[O-])cc2)n1` [PA38, N-[1-(4-nitrophenyl)-9H-pyrido[3,4-b]indol-3-yl]methanesulfonamide], for which the “AlphaLisa IC50” value is “Neg”.
Regarding `O=C(O)c1cc2c([nH]c3ccccc32)c(-c2cccc([N+](=O)[O-])c2)n1` [PA36], the IC50 worked out at 7.1 ± 0.61 µM.
For `CCS(=O)(=O)c1ccc(-c2nc(C(=O)O)cc3c2[nH]c2ccccc23)cc1` [PA45, 1-(4-ethylsulfonylphenyl)-9Hpyrido[3,4-b]indole-3-carboxylic acid], the IC50 was 0.94 ± 0.24 µM.
On the same count and under the same terms, the figure for `O=C(O)c1cc2c([nH]c3ccccc32)c(-c2ccc(NS(=O)(=O)c3ccccc3)cc2)n1` [PA77, 1-[4-(benzenesulfonamido)phenyl]-9H-pyrido[3,4-b]indole-3-carboxylic acid] is 1.52 ± 0.19 µM.
`CS(=O)(=O)c1ccc(-c2nc(C(=O)O)nc3c2[nH]c2ccccc23)cc1` [PA70, 4-(4-methylsulfonylphenyl)-5H-pyrimido[5,4-b]indole-2-carboxylic acid]: the half-maximal inhibitory concentration (IC50) stood at 9.04 ± 0.89 µM.
Turning to `CS(=O)(=O)c1ccc(-c2ccc(-c3nc(C(=O)O)cc4c3[nH]c3ccccc34)cc2)cc1` [PA61], the IC50 was 3.86 ± 0.59 µM.
The same measure, in the same setting: the figure for `O=C(O)c1cc2c([nH]c3ccccc32)c(-c2cccc(O)c2)n1` [PA22] is 14.7 ± 3.25 µM; for `N#Cc1cccc(-c2nc(C(=O)O)cc3c2[nH]c2ccccc23)c1` [PA23] it is 2.38 ± 0.9 µM.
On to `O=[N+]([O-])c1ccc(-c2nc(Br)cc3c2[nH]c2ccc(Br)cc23)cc1` [PA30, 3,6-dibromo-1-(4-nitrophenyl)-9H-pyrido[3,4-b]indole], for which the “AlphaLisa IC50” value is “Neg”.
In the case of `NS(=O)(=O)c1ccc(-c2nc(C(=O)O)cc3c2[nH]c2ccccc23)cc1` [PA49, 1-(4-sulfamoylphenyl)-9H-pyrido[3,4-b]indole-3-carboxylic acid], the IC50 was determined as 0.96 ± 0.096 µM.
Consider `Cn1c2ccccc2c2cc(C(=O)O)nc(-c3ccc([N+](=O)[O-])cc3)c21` [PA14, 9-methyl-1-(4-nitrophenyl)pyrido[3,4-b]indole-3-carboxylic acid], for which the IC50 turned out to be 32.2 ± 7.89 µM.
Still for that read-out and setting: the value for `O=C(O)c1cc2c([nH]c3ccccc32)c(-c2ncc[nH]2)n1` [PA27] was 23.1 ± 4.02 µM.
For the compound `O=C(O)c1cc2c([nH]c3ccccc32)c(-c2ccc3[nH]ccc3c2)n1` [PA28, 1-(1H-indol-5-yl)-9H-pyrido[3,4-b]indole-3-carboxylic acid], the 50% inhibitory concentration (IC50) was determined as 34.8 ± 8.75 µM.
Still for that read-out and setting: the value for `Cc1ccc(-c2ccc(-c3nc(C(=O)O)cc4c3[nH]c3ccccc34)cc2)cc1` [PA59] was 25 ± 12.5 µM; that for `O=C(O)c1cc2c([nH]c3ccccc32)c(-c2cccc(Cl)c2)n1` [PA6] was 3.97 ± 0.79 µM.
On the same count and under the same terms, the figure for `O=C(O)c1cc2c([nH]c3ccccc32)c(-c2ccc(F)c(F)c2)n1` [PA32] is 3.54 ± 0.68 µM.
The same measure, in the same setting: the figure for `O=C(O)c1cc2c([nH]c3ccccc32)c(-c2ccc(CO)cc2)n1` [PA21] is 3.4 ± 0.88 µM; for `Cc1c(/C(=N\CC(=O)O)c2ccc3[nH]ncc3c2)[nH]c2ccccc12` [PA29] it is 3.79 ± 1.02 µM; for `CN1C=C(c2nc(C(=O)O)cc3c2[nH]c2ccccc23)C=NC1` [PA26] it is 4.81 ± 0.96 µM.
For the compound `COCCOCC#Cc1ccc(-c2nc(C(=O)O)cc3c2[nH]c2ccccc23)cc1` [PA63], the IC50 came to 5.05 ± 0.2 µM.

For the origin of these results see patent US20250188078A1, “SMALL MOLECULE INHIBITORS OF THE CRL4 UBIQUITIN LIGASE” (Cornell University, priority 2022, published 2025).
